Two molecules from US20200038306A1, “[…] DERIVATIVES AS SELF-TANNING SUBSTANCES” (Merck Patent GmbH, priority 2016, published 2020) can be followed below.

In test [1] the test system is Normal Human Epidermal Keratinocytes (NHEK) and Normal Human Epidermal Melanocytes, Lightly Pigmented (NHEM-LP) co-culture. The test can be described thus: Synthesis of melanin in NHEK/NHEM-LP co-culture. The class given is cell-based. As to conditions: 240 hours (10 days) incubation, melanin extracted with 0.5 N NaOH, OD 405 nm, triple determination. On the procedure:
Evaluation of the Synthesis of Melanin in a Cell Culture Model Containing Two Cell Types (Co-Culture), Firstly Normal Human Epidermal Keratinocytes (NHEK) and Secondly Normal Human Epidermal Melanocytes, Lightly Pigmented (NHEM-LP)
The two cell types NHEK and NHEM-LP (NHEK:NHEM-LP) are employed in a ratio of 2:1.
The culture medium consists of the media keratinocyte-SFM (2 parts by volume) and medium M254 (1 part by volume).
Keratinocyte-SFM contains 0.25 ng/ml of epidermal growth factor (EGF), 25 μg/ml of pituitary extract (PE) and 25 μg/ml of gentamycin and was purchased from Thermo Fisher Scientific.
M254 contains PMA-free HMGS-2, 5 μg/ml of insulin, 50 U/ml of penicillin, 50 μg/ml of streptomycin and 25 μg/ml of gentamycin and was purchased from Thermo Fisher Scientific.
IBMX denotes the compound 3-isobutyl-1-methylxanthine.
Cell Culture and Treatment
NHEK and NHEM-LP were incubated in the culture medium in microtitre plates (24-well plates) for 24 hours (37° C., 5% CO2). The culture medium was removed and replaced by an assay medium which contained the culture medium and compounds Ib and Id to be tested or alternatively no test substance, the reference L-tyrosine (1 mM), 200 μM of IBMX or the solvent control 0.1% of THF, 0.15% of THF, 0.1% of DMSO, 0.15% of DMSO, 0.17% of DMSO. Compound Ib was added as solution (0.15% in DMSO). Compound Id was added as solution (0.15% in THF). After replacement of the assay medium, the cells were incubated again for 240 hours (10 days). On days 3 and 7, assay medium was again added. All experimental investigations were carried out using a triple determination. After the end of the incubation, the melanin was extracted by cell lysis with 0.5 N NaOH. The optical density (OD) of each sample was measured at 405 nm. The melanin quantity was calculated from melanin standards (standard curve 0.39 to 100 μg/ml of melanin).

Test [2] has as its system 3D melanized reconstructed human epidermis (RHEs-MEL). The test can be described thus: Tanning properties in vitro on reconstructed epidermis. The class given is cell-based. Particulars: systemic treatment in culture medium for 10 days, positive control IBMX 100 μM. How it is done: Evaluation of the Tanning Properties In Vitro on Reconstructed Epidermis
In this study, the tanning properties of compound Id are investigated in vitro on 3D melanized reconstructed human epidermis (RHEs-MEL). The compound IBMX (3-isobutyl-1-methylxanthine) 100 μM is employed as positive control. Compound Id is employed 20 μM and […]. Untreated reconstructed skin is used as negative control. The in vitro skin is treated systemically with the compounds to be investigated in a culture medium for 10 days and then analysed.

With `COc1ccc(CC2C(=O)NC(=O)NC2=O)cc1` [Compound Ib, 5-(4-methoxybenzyl)pyrimidine-2,4,6-trione], in test [1] (45 μM), the “stimulation of melanin synthesis” value stood at 20%.
As to `CCCCN1C(=O)NC(=O)C(Cc2ccccc2)C1=O` (centres unmarked) [Compound Id, 5-benzyl-1-butylpyrimidine-2,4,6-trione], the “stimulation of melanin synthesis” value stood at 17% in test [1] (20 μM) and 25% in test [1] (45 μM). Besides, the “tanning properties (reduction of the ITA value and visual colour difference) compared with IBMX” value in test [2] (20 μM) and in test [2] was “comparably good properties as IBMX at 100 μM” throughout.
